Laboratory results as given in US8569384B2, “Antimicrobial compositions” (3M Innovative Properties Company, priority 2006, dated 2013).
Where a name gives a salt, the structure may show the parent alone.

System: E. faecalis; ATCC #10741
Assay: Direct Inoculation Filter Assay (residual efficacy on filter paper)
Type: cell-based, Enterococcus faecalis
Details: 2.0% ester with 4.0% cetyl alcohol and CHG in dried waxy coatings (Table 3)
Procedure: Direct Innoculation Filter Assay
This is an in vitro assay using filter paper to compare the residual efficacy of different surgical skin prep formulations.
Phosphate Buffered Water solution (PBW) was made by making a 0.25M stock solution by putting 34 grams KH2PO4 into 500 mL of DI water, adjusting the pH to 7.2 with 10N NaOH, and adding enough DI water to make 1 liter. The solution was filtered, sterilized, dispensed into a 1 liter sterile bottle, and stored under refrigeration. Butterfield's PBW was made by adding 1.25 mL of the stock solution to 900 mL of DI water and adding neutralizers, stirring, heating to dissolve the components, and diluting to 1 liter with DI water. The solution was mixed well, dispensed into two 500-mL bottles. The bottles containing the solution were autoclaved for 25 minutes at 121 degree C. The contents were carefully swirled after removing the bottles from the autoclave.
A Standard Sampling Solution (SSS) was prepared which contained: 0.4 grams KH2PO4, 10.1 grams Na2HPO4, 1.0 gram TRITON X-100 surfactant, 3.0 grams lecithin, 30.0 grams TWEEN 80, and deionized water to bring the total volume to 1 liter. […]
Onto each filter disc was pipetted 25 μL of each Example preparation or control. […] After 48 hours, colonies were counted and recorded.
The CFU/mL was determined by multiplying CFU count by dilution rate. The CFU/sample was calculated by multiplying the CFU/mL by 20, the amount of the SSS dilution. The log10 of the CFU/sample was calculated. […]

SMILES	Effect of emollient ester on bactericidal activity of the CHG
CC(C)OC(=O)CCCCC(=O)OC(C)C [diisopropyl adipate, Diisopropyl adipate]	significantly enhanced the bactericidal activity of the CHG
CCCCCCCCCCCCCCCC(=O)OC(C)C [isopropyl palmitate, Isopropyl palmitate]	did not enhance the activity of the CHG
CCCCOC(=O)CC(O)(CC(=O)OCCCC)C(=O)OCCCC [tributyl citrate, Tributyl citrate]	significantly enhanced the bactericidal activity of the CHG
